± gives the expanded uncertainty stated by the source.
Assay: xn = mol fraction of the nth substance listed
Details: 101 kPa, Liquid, Vibrating tube method

NCCN [ethane-1,2-diamine] + O
mass density [kg/m3]
Details | 288.15 K | 293.15 K | 298.15 K | 303.15 K | 308.15 K | 313.15 K | 318.15 K
x2 = 0.0401 | 905.79 ± 0.45 | 901.13 ± 0.45 | 896.45 ± 0.45 | 891.76 ± 0.44 | 887.06 ± 0.44 | 882.34 ± 0.44 | 877.6 ± 0.44
x2 = 0.0797 | 909.79 ± 0.43 | 905.15 ± 0.43 | 900.49 ± 0.43 | 895.82 ± 0.43 | 891.14 ± 0.43 | 886.43 ± 0.43 | 881.71 ± 0.42
x2 = 0.1199 | 914.18 ± 0.42 | 909.56 ± 0.42 | 904.92 ± 0.41 | 900.27 ± 0.41 | 895.6 ± 0.41 | 890.91 ± 0.41 | 886.2 ± 0.41
x2 = 0.1598 | 918.88 ± 0.4 | 914.28 ± 0.4 | 909.66 ± 0.4 | 905.03 ± 0.4 | 900.38 ± 0.4 | 895.71 ± 0.39 | 891.01 ± 0.39
x2 = 0.2003 | 923.88 ± 0.38 | 919.29 ± 0.38 | 914.69 ± 0.38 | 910.07 ± 0.38 | 905.43 ± 0.38 | 900.77 ± 0.38 | 896.09 ± 0.38
x2 = 0.25 | 930.08 ± 0.36 | 925.52 ± 0.36 | 920.93 ± 0.36 | 916.33 ± 0.36 | 911.71 ± 0.36 | 907.07 ± 0.36 | 902.4 ± 0.36
x2 = 0.2999 | 936.78 ± 0.34 | 932.23 ± 0.34 | 927.67 ± 0.34 | 923.08 ± 0.34 | 918.47 ± 0.34 | 913.84 ± 0.34 | 909.18 ± 0.34
x2 = 0.3497 | 944.11 ± 0.32 | 939.57 ± 0.32 | 935.02 ± 0.32 | 930.44 ± 0.32 | 925.84 ± 0.32 | 921.21 ± 0.32 | 916.56 ± 0.32
x2 = 0.3998 | 951.74 ± 0.31 | 947.2 ± 0.3 | 942.65 ± 0.3 | 938.08 ± 0.3 | 933.48 ± 0.3 | 928.86 ± 0.3 | 924.21 ± 0.3
x2 = 0.4504 | 959.71 ± 0.29 | 955.18 ± 0.29 | 950.64 ± 0.29 | 946.07 ± 0.28 | 941.48 ± 0.28 | 936.86 ± 0.28 | 932.22 ± 0.28
x2 = 0.5001 | 967.93 ± 0.27 | 963.41 ± 0.27 | 958.87 ± 0.27 | 954.3 ± 0.27 | 949.72 ± 0.27 | 945.1 ± 0.27 | 940.46 ± 0.27
x2 = 0.5499 | 976.43 ± 0.24 | 971.92 ± 0.24 | 967.39 ± 0.24 | 962.83 ± 0.24 | 958.26 ± 0.24 | 953.66 ± 0.24 | 949.04 ± 0.24
x2 = 0.5998 | 984.56 ± 0.22 | 980.1 ± 0.22 | 975.61 ± 0.22 | 971.09 ± 0.22 | 966.55 ± 0.22 | 961.99 ± 0.22 | 957.4 ± 0.22
x2 = 0.6499 | 991.92 ± 0.19 | 987.54 ± 0.19 | 983.14 ± 0.19 | 978.72 ± 0.19 | 974.26 ± 0.19 | 969.77 ± 0.19 | 965.25 ± 0.19
x2 = 0.7004 | 998.03 ± 0.16 | 993.83 ± 0.17 | 989.6 ± 0.17 | 985.34 ± 0.17 | 981.04 ± 0.17 | 976.7 ± 0.17 | 972.33 ± 0.17
x2 = 0.7499 | 1001.68 ± 0.14 | 997.76 ± 0.14 | 993.81 ± 0.14 | 989.81 ± 0.14 | 985.76 ± 0.14 | 981.67 ± 0.14 | 977.53 ± 0.14
x2 = 0.8 | 1002.5 ± 0.12 | 999 ± 0.12 | 995.45 ± 0.12 | 991.83 ± 0.12 | 988.16 ± 0.12 | 984.43 ± 0.12 | 980.63 ± 0.12
x2 = 0.84 | 1001.38 ± 0.1 | 998.31 ± 0.1 | 995.17 ± 0.1 | 991.96 ± 0.1 | 988.67 ± 0.1 | 985.31 ± 0.1 | 981.87 ± 0.1
x2 = 0.88 | 999.21 ± 0.08 | 996.66 ± 0.08 | 994.01 ± 0.08 | 991.27 ± 0.08 | 988.42 ± 0.08 | 985.47 ± 0.08 | 982.43 ± 0.09
x2 = 0.9193 | 997.06 ± 0.07 | 995.08 ± 0.06 | 992.96 ± 0.07 | 990.71 ± 0.07 | 988.32 ± 0.07 | 985.81 ± 0.07 | 983.17 ± 0.07
x2 = 0.9599 | 996.39 ± 0.05 | 995.01 ± 0.05 | 993.42 ± 0.05 | 991.65 ± 0.05 | 989.7 ± 0.05 | 987.59 ± 0.06 | 985.32 ± 0.06
